Patent US10696708B2, “Substituted nucleosides, nucleotides and analogs thereof” (Janssen BioPharma, Inc., priority 2013, dated 2020)
Where two headings read alike, the source gives them in different places.

Assays:
[1] = test system: RSV subgenomic replicon 395 HeLa; assay: RSV subgenomic replicon assay (Renilla luciferase); format: cell-based; settings: human respiratory syncytial virus, 168 h
human metapneumovirus = assay: Human Metapneumovirus (hMPV) TCID50 assay; format: cell-based
human PIV type 3 = assay: Parainfluenza Virus-3 (PIV-3) plaque assay; format: cell-based
RSV polymerase = RSV polymerase (Human respiratory syncytial virus A, UniProt P28887); assay: Standard RSV polymerase assay; format: biochemical
Chain of RSV polymerase (P28887 whole entry, looked up): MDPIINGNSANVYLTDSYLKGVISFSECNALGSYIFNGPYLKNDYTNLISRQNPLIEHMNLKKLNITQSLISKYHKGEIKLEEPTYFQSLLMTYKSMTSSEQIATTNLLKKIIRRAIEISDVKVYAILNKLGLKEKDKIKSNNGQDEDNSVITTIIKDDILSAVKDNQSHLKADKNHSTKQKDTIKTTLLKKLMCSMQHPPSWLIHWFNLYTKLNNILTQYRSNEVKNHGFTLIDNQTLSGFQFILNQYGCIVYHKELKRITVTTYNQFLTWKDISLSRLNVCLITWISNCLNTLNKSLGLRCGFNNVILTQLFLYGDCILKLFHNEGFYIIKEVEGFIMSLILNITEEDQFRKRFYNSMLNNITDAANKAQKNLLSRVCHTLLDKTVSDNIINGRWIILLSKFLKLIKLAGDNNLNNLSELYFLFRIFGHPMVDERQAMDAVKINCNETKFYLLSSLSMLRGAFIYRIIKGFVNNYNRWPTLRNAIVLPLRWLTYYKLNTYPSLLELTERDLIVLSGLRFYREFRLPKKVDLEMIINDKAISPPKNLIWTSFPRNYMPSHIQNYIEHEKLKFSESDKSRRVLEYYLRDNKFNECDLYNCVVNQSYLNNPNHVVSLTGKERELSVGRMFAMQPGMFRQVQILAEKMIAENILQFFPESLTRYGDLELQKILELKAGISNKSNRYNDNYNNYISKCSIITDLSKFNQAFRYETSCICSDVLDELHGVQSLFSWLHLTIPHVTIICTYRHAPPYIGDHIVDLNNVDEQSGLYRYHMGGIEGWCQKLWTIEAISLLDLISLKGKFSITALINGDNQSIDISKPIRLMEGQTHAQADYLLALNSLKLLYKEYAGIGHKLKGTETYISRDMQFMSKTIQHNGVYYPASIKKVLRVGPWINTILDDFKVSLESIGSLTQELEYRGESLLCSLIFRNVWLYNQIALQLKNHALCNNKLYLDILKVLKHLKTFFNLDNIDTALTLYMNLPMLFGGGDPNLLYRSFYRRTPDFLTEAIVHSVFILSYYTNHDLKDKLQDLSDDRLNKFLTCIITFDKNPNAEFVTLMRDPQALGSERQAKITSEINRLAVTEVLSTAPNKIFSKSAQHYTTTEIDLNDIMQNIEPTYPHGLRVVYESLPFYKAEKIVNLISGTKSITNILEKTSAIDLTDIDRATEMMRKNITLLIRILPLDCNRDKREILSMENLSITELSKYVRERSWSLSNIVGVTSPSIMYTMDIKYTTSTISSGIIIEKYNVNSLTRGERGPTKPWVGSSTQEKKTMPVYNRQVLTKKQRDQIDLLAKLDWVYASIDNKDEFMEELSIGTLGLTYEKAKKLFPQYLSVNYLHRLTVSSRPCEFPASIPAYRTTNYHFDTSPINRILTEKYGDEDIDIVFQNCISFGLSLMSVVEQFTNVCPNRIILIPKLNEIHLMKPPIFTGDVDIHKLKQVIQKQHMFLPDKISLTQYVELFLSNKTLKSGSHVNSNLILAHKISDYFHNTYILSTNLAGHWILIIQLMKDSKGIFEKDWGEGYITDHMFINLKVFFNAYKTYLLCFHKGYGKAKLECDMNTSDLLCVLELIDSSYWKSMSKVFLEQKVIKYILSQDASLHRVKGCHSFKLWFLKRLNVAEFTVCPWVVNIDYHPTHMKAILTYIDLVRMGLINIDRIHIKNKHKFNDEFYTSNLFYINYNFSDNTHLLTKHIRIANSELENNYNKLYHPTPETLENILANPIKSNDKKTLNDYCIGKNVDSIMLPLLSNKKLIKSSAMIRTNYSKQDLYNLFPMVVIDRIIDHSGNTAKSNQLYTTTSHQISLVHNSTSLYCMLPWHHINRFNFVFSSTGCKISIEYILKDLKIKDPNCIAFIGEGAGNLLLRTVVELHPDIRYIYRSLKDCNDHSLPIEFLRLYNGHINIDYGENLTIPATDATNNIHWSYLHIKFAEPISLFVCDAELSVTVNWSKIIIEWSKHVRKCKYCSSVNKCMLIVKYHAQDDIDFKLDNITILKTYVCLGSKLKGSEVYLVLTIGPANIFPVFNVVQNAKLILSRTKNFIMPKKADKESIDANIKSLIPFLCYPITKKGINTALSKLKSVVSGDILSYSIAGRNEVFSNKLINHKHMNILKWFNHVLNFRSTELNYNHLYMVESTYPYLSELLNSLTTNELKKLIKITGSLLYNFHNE
Experimental: Standard RSV polymerase assays were conducted in the presence of 3 μL extract of RSV-infected cells in a reaction buffer containing 50 mM tris-acetate pH 8, 120 mM K-acetate, 4.5 mM MgCl2, 5% glycerol, 2 mM EDTA, 50 ug/mL BSA, and 3 mM DTT. Varying concentration of test compounds were used to initiate RNA synthesis for 120 mins at 30° C., and radioactive 33P GTP (15 uCi) was used as tracer. The reaction was stopped by adding 50 mM EDTA, and RNA samples were purified through G-50 size exclusion spin columns and phenol-chloroform extraction. The radio-labeled RNA products were resolved by electrophoresis on a 6% polyacrylamide TBE gel, and visualized and quantitated after being exposed on a phosphorlmager screen. Polymerase inhibition experiments (IC50) were conducted the same way in the presence of increasing concentration of test compounds.

[2] = RSV replicon 395 HeLa cells, 7 days incubation, compounds listed in Table A2 and other tested compounds, read-out: EC50
[3] = 168 h, LLC-MK2 cells, 7 days infection, viral load by TCID50 assay, Table C1, read-out: EC50 against human metapneumovirus
[4] = MA104, MA-104 cells, 72 h infection, viral load by plaque assay, Table B1, read-out: EC50 against PIV-3
[5] = RSV replicon 395 HeLa cells, 7 days incubation, compounds listed in Table A1, read-out: EC50

SMILES | EC50 [1, 2] [µM] | EC50 (human metapneumovirus; [3]) [µM] | EC50 (human PIV type 3; [4]) [µM] | IC50 (RSV polymerase) [µM] | other results
CC(C)OC(=O)C(C)NP(=O)(OCCSC(=O)C(C)(C)CO)OC[C@@]1(CN=[N+]=[N-])O[C@@H](n2ccc(=O)[nH]c2=O)[C@H](F)[C@@H]1O (stereo partly drawn) [Compound 22A] | 1 to 50 |  |  |  | 
CC(C)(C)C(=O)SCCOP(=O)(OCCSC(=O)C(C)(C)C)OC[C@@]1(CN=[N+]=[N-])O[C@@H](n2ccc(=O)[nH]c2=O)[C@H](F)[C@@H]1O [Compound 19A] | 1 to 50 | < 20 | < 20 |  | 
CC(C)(C)C(=O)OCOP(=O)(OCOC(=O)C(C)(C)C)OC[C@@]1(CN=[N+]=[N-])O[C@@H](n2ccc(=O)[nH]c2=O)[C@H](F)[C@@H]1O [Compound 28A] | 1 to 50 | < 20 | < 20 |  | 
CC(C)OC(=O)[C@H](C)NP(=O)(N[C@@H](C)C(=O)OC(C)C)OC[C@@]1(CN=[N+]=[N-])O[C@@H](n2ccc(=O)[nH]c2=O)[C@H](F)[C@@H]1O [Compound 20A] | 1 to 50 |  |  |  | 
NC[C@]1(COP(=O)(O)OP(=O)(O)OP(=O)(O)O)O[C@@H](n2ccc(=O)[nH]c2=O)[C@H](F)[C@@H]1O [Compound 5A] |  |  |  | 1 to 50 | 
CC(C)OC(=O)OCOP(=O)(OCOC(=O)OC(C)C)OC[C@@]1(CN=[N+]=[N-])O[C@@H](n2ccc(=O)[nH]c2=O)[C@H](F)[C@@H]1O [Compound 17A] | 1 to 50 | < 20 | < 20 |  | 
CC(C)OC(=O)CCc1ccccc1OP(=O)(N[C@@H](C)C(=O)OC(C)C)OC[C@@]1(CN=[N+]=[N-])O[C@@H](n2ccc(=O)[nH]c2=O)[C@H](F)[C@@H]1O (stereo partly drawn) [Compound 23A] |  |  |  |  | EC50 ([1]; HeLa): 1 to 50 µM
[N-]=[N+]=NC[C@]1(COP(=O)(O)OP(=O)(O)OP(=O)(O)O)O[C@@H](n2cnc3c(N)ncnc32)[C@H](F)[C@@H]1O [Compound 11A] |  |  |  | < 1 | 
[N-]=[N+]=NC[C@]1(COP(=O)(O)OP(=O)(O)OP(=O)(O)O)O[C@@H](n2ccc(=O)[nH]c2=O)[C@H](F)[C@@H]1O [Compound 3A] |  |  |  | < 1 | 
[N-]=[N+]=NC[C@]1(CO)O[C@@H](n2ccc(N)nc2=O)[C@H](F)[C@@H]1O [Compound 2A] |  | < 20 | < 20 |  | EC50 [1, 5]: < 1 µM
NC[C@]1(COP(=O)(O)OP(=O)(O)OP(=O)(O)O)O[C@@H](n2ccc(N)nc2=O)[C@H](F)[C@@H]1O [Compound 6A] |  |  |  | 1 to 50 | 
[N-]=[N+]=NC[C@]1(CO)O[C@@H](n2cnc3c(=O)[nH]c(N)nc32)[C@H](F)[C@@H]1O [Compound 7A] | 1 to 50 | < 20 |  |  | 
CC(C)C(=O)OC[C@@]1(CN=[N+]=[N-])O[C@@H](n2ccc(N)nc2=O)[C@H](F)[C@@H]1OC(=O)C(C)C [Compound 14A] |  | < 20 | < 20 |  | EC50 [1, 5]: < 1 µM
CCC(=O)OC[C@@]1(CN=[N+]=[N-])O[C@@H](n2ccc(N)nc2=O)[C@H](F)[C@@H]1OC(=O)CC [Compound 15A] |  | < 20 | < 20 |  | EC50 [1, 5]: < 1 µM
CC(C)OC(=O)[C@H](C)NP(=O)(OC[C@@]1(CN=[N+]=[N-])O[C@@H](n2ccc(=O)[nH]c2=O)[C@H](F)[C@@H]1O)Oc1ccccc1 (stereo partly drawn) [Compound 18A] |  |  |  |  | EC50 ([1]; HeLa): 1 to 50 µM; EC50 (human metapneumovirus; LLC-MK2, 168 h, read-out: EC50 against human metapneumovirus): < 20 µM; EC50 (human PIV type 3; MA104, 72 h, read-out: EC50 against PIV-3): < 20 µM
NC[C@]1(COP(=O)(O)OP(=O)(O)OP(=O)(O)O)O[C@@H](n2cnc3c(N)ncnc32)[C@H](F)[C@@H]1O [Compound 12A] |  |  |  | < 1 | 
CCCCC(=O)OC[C@@]1(CN=[N+]=[N-])O[C@@H](n2ccc(N)nc2=O)[C@H](F)[C@@H]1OC(=O)CCCC [Compound 16A] |  | < 20 | < 20 |  | EC50 [1, 5]: < 1 µM
CC(C)(CO)C(=O)SCCOP(=O)(OCCSC(=O)C(C)(C)CO)OC[C@@]1(CN=[N+]=[N-])O[C@@H](n2ccc(=O)[nH]c2=O)[C@H](F)[C@@H]1O [Compound 21A] |  |  |  |  | EC50 ([1]; HeLa): 1 to 50 µM
[N-]=[N+]=NC[C@]1(COP(=O)(O)OP(=O)(O)OP(=O)(O)O)O[C@@H](n2ccc(N)nc2=O)[C@H](F)[C@@H]1O [Compound 4A] |  |  |  | < 1 | 
